From the kinase profiling compilation of Christmann-Franck et al. (2016)

How the values were obtained:
Experiment in all cases: KINOMEscan competition binding
Conditions in all cases: compound 2.0 µM
[1] = test system: FGFR3 (human), P22607 [G697C]
DCLK2 (human) = DCLK2 (human) (UniProt Q8N568)
TNK1 (human) = TNK1 (human) (UniProt Q13470)
TLK2 (human) = TLK2 (human) (UniProt Q86UE8)
IGF1R (human) = IGF1R (human) (UniProt P08069)
ULK1 (human) = ULK1 (human) (UniProt O75385)
NEK2 (human) = NEK2 (human) (UniProt P51955)
Chain of NEK2 (human) (P51955 whole entry, looked up): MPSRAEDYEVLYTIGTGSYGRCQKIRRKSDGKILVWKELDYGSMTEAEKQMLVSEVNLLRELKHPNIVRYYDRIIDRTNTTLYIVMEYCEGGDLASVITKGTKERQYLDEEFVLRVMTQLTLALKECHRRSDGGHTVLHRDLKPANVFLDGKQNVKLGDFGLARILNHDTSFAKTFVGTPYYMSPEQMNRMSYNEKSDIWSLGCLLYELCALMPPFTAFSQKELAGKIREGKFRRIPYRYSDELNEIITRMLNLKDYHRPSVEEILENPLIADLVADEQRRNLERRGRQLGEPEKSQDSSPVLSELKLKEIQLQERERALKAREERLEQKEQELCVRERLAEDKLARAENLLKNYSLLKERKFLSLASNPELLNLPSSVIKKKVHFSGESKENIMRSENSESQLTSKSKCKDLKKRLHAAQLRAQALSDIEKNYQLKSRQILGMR

CAMKK2 (human) = CAMKK2 (human) (UniProt Q96RR4)
CAMK2A (human) = CAMK2A (human) (UniProt Q9UQM7)
MAK (human) = MAK (human) (UniProt P20794)
PDPK1 (human) = PDPK1 (human) (UniProt O15530)
PIK3CA (human) = PIK3CA (human) (UniProt P42336)
[2] = target: TYK2 JH2 pseudokinase (human) (UniProt P29597)
PIM3 (human) = PIM3 (human) (UniProt Q86V86)
[3] = test system: FLT3 (human), P36888 [N841I]
[4] = test system: EGFR (human), P00533 [747-751 del / S ins]
CSNK1E (human) = CSNK1E (human) (UniProt P49674)
CSNK2A1 (human) = CSNK2A1 (human) (UniProt P68400)
DYRK1A (human) = DYRK1A (human) (UniProt Q13627)
CLK3 (human) = CLK3 (human) (UniProt P49761)
AKT2 (human) = AKT2 (human) (UniProt P31751)
MARK2 (human) = MARK2 (human) (UniProt Q7KZI7)
MARK3 (human) = MARK3 (human) (UniProt P27448)
MAP3K6 (human) = MAP3K6 (human) (UniProt O95382)
TNNI3K (human) = TNNI3K (human) (UniProt Q59H18)
PLK2 (human) = PLK2 (human) (UniProt Q9NYY3)
CSNK1G2 (human) = CSNK1G2 (human) (UniProt P78368)
TNK2 (human) = TNK2 (human) (UniProt Q07912)
[5] = test system: PIK3CA (human), P42336 [H1047Y]
Chain of PIK3CA (human), P42336 [H1047Y] (P42336 whole entry H1047Y, looked up): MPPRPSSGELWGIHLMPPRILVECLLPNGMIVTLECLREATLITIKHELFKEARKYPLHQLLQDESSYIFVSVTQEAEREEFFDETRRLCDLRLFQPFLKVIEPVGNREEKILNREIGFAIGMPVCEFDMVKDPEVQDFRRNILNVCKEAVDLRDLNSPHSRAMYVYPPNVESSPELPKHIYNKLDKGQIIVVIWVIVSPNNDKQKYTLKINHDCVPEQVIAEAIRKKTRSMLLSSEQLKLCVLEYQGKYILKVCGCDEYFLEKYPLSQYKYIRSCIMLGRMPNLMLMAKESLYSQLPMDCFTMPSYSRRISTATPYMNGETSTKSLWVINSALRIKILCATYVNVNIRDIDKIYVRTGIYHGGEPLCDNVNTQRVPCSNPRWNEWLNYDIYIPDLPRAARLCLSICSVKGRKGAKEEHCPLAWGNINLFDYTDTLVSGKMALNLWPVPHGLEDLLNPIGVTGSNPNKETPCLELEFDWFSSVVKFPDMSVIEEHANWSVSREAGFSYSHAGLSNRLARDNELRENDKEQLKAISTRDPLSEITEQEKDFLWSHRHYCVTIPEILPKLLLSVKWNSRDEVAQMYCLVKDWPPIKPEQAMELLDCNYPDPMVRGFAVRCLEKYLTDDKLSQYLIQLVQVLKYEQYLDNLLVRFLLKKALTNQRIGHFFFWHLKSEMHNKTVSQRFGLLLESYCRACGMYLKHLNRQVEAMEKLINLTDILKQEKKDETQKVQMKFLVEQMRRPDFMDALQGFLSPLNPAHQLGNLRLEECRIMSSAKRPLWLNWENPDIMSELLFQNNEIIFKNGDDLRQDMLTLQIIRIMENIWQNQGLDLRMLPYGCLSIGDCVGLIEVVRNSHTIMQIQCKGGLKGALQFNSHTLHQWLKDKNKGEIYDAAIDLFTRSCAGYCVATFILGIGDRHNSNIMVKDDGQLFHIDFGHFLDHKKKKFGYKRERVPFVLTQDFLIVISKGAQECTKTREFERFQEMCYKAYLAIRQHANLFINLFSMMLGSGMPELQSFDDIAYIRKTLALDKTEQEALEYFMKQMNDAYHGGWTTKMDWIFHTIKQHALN

ABL2 (human) = ABL2 (human) (UniProt P42684)
Chain of ABL2 (human) (P42684 whole entry, looked up): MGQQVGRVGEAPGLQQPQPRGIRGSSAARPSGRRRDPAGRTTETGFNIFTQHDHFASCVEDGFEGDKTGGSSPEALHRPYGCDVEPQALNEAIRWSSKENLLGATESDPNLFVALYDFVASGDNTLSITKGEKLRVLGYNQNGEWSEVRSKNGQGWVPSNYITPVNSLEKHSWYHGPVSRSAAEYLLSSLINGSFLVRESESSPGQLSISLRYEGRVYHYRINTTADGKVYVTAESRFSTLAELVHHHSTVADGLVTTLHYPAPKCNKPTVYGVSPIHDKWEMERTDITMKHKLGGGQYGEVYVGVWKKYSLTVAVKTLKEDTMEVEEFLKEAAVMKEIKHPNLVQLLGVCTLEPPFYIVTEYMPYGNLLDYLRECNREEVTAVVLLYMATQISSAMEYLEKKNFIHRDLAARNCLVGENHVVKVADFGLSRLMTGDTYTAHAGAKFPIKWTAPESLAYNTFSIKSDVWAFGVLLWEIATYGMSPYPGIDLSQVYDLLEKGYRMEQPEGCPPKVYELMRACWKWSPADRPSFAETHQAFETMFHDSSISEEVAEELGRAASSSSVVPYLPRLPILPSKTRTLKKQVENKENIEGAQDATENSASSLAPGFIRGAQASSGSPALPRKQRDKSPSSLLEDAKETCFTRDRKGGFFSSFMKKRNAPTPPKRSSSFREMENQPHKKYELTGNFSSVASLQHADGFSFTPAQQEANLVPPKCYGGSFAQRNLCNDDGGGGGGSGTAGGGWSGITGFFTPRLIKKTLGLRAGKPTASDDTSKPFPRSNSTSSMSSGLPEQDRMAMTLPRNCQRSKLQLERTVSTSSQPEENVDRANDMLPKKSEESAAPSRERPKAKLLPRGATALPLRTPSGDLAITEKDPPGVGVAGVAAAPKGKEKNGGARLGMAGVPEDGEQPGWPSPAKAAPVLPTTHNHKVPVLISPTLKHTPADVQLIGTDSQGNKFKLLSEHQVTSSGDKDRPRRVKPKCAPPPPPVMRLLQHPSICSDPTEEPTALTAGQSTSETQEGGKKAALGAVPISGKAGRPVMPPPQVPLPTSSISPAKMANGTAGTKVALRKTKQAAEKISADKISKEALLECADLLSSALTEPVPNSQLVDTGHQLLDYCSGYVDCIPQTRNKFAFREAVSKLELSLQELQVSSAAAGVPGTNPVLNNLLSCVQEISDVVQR

SBK1 (human) = SBK1 (human) (UniProt Q52WX2)
MAP4K5 (human) = MAP4K5 (human) (UniProt Q9Y4K4)
Chain of MAP4K5 (human) (Q9Y4K4 whole entry, looked up): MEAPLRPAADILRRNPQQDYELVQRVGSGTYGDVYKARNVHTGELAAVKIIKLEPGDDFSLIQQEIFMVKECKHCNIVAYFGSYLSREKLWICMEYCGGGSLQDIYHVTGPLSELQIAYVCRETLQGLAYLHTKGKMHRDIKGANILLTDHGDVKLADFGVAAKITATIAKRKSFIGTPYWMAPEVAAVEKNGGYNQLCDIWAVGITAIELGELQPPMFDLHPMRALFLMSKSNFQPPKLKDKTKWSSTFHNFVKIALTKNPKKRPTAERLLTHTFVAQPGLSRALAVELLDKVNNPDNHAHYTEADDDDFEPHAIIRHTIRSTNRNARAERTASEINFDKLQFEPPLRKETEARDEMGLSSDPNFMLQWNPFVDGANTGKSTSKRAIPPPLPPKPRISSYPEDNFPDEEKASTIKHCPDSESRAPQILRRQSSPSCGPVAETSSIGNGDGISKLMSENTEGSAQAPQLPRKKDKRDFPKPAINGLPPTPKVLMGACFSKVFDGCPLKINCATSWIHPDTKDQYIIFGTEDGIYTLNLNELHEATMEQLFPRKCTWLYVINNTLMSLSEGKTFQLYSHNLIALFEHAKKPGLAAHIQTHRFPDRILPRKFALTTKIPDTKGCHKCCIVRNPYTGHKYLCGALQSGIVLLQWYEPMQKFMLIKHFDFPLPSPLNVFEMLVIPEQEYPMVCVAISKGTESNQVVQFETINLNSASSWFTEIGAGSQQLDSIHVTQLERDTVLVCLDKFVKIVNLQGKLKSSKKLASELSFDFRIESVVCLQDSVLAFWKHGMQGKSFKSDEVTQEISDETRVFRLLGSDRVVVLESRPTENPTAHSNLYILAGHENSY

STK17B (human) = STK17B (human) (UniProt O94768)
PRKD2 (human) = PRKD2 (human) (UniProt Q9BZL6)
PAK7 (human) = PAK7 (human) (UniProt Q9P286)
Chain of PAK7 (human) (Q9P286 whole entry, looked up): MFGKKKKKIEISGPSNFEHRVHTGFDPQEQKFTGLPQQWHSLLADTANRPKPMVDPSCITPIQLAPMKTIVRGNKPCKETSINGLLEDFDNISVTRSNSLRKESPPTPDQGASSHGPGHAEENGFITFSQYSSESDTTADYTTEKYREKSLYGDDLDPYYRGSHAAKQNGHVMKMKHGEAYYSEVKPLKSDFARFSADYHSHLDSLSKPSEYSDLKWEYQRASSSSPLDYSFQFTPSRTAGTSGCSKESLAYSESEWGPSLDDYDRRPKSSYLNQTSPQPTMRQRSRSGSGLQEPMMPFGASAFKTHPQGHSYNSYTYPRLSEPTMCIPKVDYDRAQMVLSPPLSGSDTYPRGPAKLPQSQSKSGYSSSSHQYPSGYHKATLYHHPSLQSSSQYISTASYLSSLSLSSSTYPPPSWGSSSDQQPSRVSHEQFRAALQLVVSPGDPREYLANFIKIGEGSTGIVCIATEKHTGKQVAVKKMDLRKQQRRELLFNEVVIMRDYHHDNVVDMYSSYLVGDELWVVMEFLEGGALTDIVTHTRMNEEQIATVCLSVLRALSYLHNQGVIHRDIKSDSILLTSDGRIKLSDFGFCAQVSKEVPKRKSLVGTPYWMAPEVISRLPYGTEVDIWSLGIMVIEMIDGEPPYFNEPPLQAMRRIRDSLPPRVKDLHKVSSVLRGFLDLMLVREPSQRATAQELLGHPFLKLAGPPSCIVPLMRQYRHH

PIK3CG (human) = PIK3CG (human) (UniProt P48736)
MAP3K15 (human) = MAP3K15 (human) (UniProt Q6ZN16)
BTK (human) = BTK (human) (UniProt Q06187)
[6] = test system: EGFR (human), P00533 [T790M]
SIK2 (human) = SIK2 (human) (UniProt Q9H0K1)
STK32B (human) = STK32B (human) (UniProt Q9NY57)
STK11 (human) = STK11 (human) (UniProt Q15831)
Chain of STK11 (human) (Q15831 whole entry, looked up): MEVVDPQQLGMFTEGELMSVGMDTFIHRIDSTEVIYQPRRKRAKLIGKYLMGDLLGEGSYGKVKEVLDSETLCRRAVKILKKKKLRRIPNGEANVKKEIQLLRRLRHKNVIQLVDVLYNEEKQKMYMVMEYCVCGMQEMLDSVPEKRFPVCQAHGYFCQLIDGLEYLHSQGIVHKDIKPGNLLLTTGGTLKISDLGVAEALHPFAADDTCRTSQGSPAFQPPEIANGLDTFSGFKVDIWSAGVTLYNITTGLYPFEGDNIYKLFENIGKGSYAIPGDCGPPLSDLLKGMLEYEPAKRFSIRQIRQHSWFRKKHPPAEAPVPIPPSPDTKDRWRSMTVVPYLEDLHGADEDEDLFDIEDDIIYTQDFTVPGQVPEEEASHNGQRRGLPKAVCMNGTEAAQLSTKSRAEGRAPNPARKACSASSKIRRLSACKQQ

PRKX (human) = PRKX (human) (UniProt P51817)
Chain of PRKX (human) (P51817 whole entry, looked up): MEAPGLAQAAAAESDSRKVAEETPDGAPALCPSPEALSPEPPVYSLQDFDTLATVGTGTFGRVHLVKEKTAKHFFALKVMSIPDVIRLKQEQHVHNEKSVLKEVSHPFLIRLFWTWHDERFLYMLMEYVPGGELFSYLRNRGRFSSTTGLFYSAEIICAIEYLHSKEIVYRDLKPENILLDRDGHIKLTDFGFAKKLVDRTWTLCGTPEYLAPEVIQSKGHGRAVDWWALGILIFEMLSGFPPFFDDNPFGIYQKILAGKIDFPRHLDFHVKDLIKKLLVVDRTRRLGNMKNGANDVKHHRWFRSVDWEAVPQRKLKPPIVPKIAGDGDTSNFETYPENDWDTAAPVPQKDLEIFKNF

`N#Cc1ccc2ncnc(NCCc3ccc4ccccc4c3)c2c1` gave a kinase still bound, per cent of control [1] of 100%, a kinase still bound, per cent of control (DCLK2 (human)) of 100% and a kinase still bound, per cent of control (TNK1 (human)) of 90%. It also gave a kinase still bound, per cent of control (TLK2 (human)) of 94%, a kinase still bound, per cent of control (IGF1R (human)) of 100% and a kinase still bound, per cent of control (ULK1 (human)) of 100%. The kinase still bound, per cent of control (NEK2 (human)) was 100%, the kinase still bound, per cent of control (CAMKK2 (human)) was 100% and the kinase still bound, per cent of control (CAMK2A (human)) was 99%. The kinase still bound, per cent of control (MAK (human)) was 99%, the kinase still bound, per cent of control (PDPK1 (human)) was 100% and the kinase still bound, per cent of control (PIK3CA (human)) was 78%. For the same molecule, the kinase still bound, per cent of control [2] was 92%, the kinase still bound, per cent of control (PIM3 (human)) was 100% and the kinase still bound, per cent of control [3] was 95%. It also gave a kinase still bound, per cent of control [4] of 71%, a kinase still bound, per cent of control (CSNK1E (human)) of 100% and a kinase still bound, per cent of control (CSNK2A1 (human)) of 92%. It also gave a kinase still bound, per cent of control (DYRK1A (human)) of 100%, a kinase still bound, per cent of control (CLK3 (human)) of 93% and a kinase still bound, per cent of control (AKT2 (human)) of 100%. It also gave a kinase still bound, per cent of control (MARK2 (human)) of 94%, a kinase still bound, per cent of control (MARK3 (human)) of 95% and a kinase still bound, per cent of control (MAP3K6 (human)) of 100%. For the same molecule, the kinase still bound, per cent of control (TNNI3K (human)) was 100%, the kinase still bound, per cent of control (PLK2 (human)) was 98% and the kinase still bound, per cent of control (CSNK1G2 (human)) was 87%. The kinase still bound, per cent of control (TNK2 (human)) was 97%, the kinase still bound, per cent of control [5] was 78% and the kinase still bound, per cent of control (ABL2 (human)) was 99%. For the same molecule, the kinase still bound, per cent of control (SBK1 (human)) was 100%, the kinase still bound, per cent of control (MAP4K5 (human)) was 95% and the kinase still bound, per cent of control (STK17B (human)) was 100%. The kinase still bound, per cent of control (PRKD2 (human)) was 73%, the kinase still bound, per cent of control (PAK7 (human)) was 100% and the kinase still bound, per cent of control (PIK3CG (human)) was 68%. It also gave a kinase still bound, per cent of control (MAP3K15 (human)) of 91%, a kinase still bound, per cent of control (BTK (human)) of 86% and a kinase still bound, per cent of control [6] of 100%. The kinase still bound, per cent of control (SIK2 (human)) was 100%, the kinase still bound, per cent of control (STK32B (human)) was 97% and the kinase still bound, per cent of control (STK11 (human)) was 100%. It also gave a kinase still bound, per cent of control (PRKX (human)) of 93%.
